Measurements reported in ChEMBL document CHEMBL1201862, “PubChem BioAssay data set” (2004).
One block for each molecule: values may come before it. The source made the active and inactive calls.

What was measured:
[1] = biological target: T1, Tyrosine-protein phosphatase non-receptor type 7 (Homo sapiens, UniProt P35236); experiment: inhibition of hematopoietic tyrosine phosphatase HePTP – biochemical, set 2, SAR follow-up (AID 449736); assay type: functional
T1 sequence (P35236 whole entry): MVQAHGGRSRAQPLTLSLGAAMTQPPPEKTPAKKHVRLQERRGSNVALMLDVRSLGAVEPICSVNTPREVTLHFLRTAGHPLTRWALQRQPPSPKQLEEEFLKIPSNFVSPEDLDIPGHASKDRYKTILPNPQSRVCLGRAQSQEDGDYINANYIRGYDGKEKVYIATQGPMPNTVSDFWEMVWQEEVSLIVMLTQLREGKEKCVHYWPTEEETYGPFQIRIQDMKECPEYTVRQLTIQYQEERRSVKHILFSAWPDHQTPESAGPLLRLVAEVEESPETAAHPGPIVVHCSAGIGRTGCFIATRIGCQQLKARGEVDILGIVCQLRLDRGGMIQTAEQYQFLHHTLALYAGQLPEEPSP

[2] = biological target: T2, Kappa-type opioid receptor (Homo sapiens, UniProt P41145); experiment: SAR analysis of small molecule agonists of the kappa opioid receptor via a luminescent beta-arrestin assay - Set 3. [Related pubchem assays (depositor defined):AID1777, AID1785, AID1786, AID1966, AID2133, AID2136, AID2284, AID2500]; assay type: functional
T2 sequence (P41145 whole entry): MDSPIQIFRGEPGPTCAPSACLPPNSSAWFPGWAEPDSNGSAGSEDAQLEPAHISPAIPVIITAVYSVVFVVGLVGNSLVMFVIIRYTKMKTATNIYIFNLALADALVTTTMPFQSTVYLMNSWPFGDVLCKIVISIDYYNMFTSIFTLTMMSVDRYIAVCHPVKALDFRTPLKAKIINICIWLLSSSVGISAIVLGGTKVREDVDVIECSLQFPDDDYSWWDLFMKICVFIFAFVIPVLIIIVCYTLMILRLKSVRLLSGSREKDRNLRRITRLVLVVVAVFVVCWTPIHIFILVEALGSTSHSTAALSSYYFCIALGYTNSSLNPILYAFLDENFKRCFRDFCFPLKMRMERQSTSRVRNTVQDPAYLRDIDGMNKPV

[3] = biological target: Delta-type opioid receptor (Homo sapiens, UniProt P41143); experiment: SAR Analysis of Agonists of the DOR Receptor using an Image-Based Assay - Set 3. [Related pubchem assays (depositor defined):AID1777, AID1786]; assay type: functional
Chain of Delta-type opioid receptor (P41143 whole entry): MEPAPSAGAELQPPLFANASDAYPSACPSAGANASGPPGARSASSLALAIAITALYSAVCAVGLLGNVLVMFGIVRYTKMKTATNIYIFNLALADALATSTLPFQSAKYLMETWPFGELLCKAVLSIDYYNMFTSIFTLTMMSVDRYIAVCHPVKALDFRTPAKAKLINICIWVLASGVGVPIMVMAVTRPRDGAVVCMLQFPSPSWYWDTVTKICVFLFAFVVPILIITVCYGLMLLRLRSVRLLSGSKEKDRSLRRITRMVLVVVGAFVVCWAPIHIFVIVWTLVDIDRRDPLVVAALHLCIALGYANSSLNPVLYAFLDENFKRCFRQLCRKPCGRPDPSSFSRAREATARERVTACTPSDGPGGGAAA

[4] = biological target: T2, Kappa-type opioid receptor; experiment: kappa opioid receptor activation by imaging – image-based, set 3, SAR follow-up (AID 488833); assay type: functional
Mu-type opioid receptor = Mu-type opioid receptor (Homo sapiens, UniProt P35372); experiment: SAR Analysis of Agonists of the MOR Receptor using an Image-Based Assay - Set 3. [Related pubchem assays (depositor defined):AID1777, AID1785, AID1786, AID1966, AID2133, AID2136, AID2284, AID2285, AID2352]; assay type: functional
Chain of Mu-type opioid receptor (P35372 whole entry, the tested form may be a part): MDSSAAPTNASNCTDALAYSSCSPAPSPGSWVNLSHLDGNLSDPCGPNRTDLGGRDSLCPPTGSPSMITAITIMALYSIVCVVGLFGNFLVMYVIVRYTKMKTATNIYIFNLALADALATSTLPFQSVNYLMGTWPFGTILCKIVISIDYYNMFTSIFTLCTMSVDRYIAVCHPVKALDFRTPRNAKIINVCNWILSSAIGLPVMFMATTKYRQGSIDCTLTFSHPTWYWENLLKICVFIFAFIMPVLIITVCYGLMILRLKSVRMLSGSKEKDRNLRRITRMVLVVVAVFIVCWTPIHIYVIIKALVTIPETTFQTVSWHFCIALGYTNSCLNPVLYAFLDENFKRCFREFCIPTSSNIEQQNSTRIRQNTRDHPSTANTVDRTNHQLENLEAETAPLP

[5] = biological target: T3, Runt-related transcription factor 1/Core-binding factor subunit beta (Homo sapiens, UniProt Q01196+Q13951); experiment: Runt domain/CBFb-SMMHC interaction disruptors – biochemical, TR-FRET (AID 1438); assay type: protein assay
T3 sequence (Q01196 whole entry, the tested form may be a part): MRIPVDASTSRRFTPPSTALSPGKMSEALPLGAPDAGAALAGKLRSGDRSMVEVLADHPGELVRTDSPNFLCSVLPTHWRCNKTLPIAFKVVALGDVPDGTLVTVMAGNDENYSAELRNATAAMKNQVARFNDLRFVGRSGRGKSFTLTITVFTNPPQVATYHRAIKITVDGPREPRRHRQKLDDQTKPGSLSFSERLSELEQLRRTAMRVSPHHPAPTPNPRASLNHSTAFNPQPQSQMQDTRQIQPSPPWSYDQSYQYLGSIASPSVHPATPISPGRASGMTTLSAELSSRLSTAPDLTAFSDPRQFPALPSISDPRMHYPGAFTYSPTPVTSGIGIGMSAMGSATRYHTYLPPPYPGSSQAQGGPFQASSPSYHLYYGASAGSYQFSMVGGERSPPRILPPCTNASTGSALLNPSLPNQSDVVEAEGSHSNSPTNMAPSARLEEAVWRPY
T3 sequence (Q13951 whole entry, the tested form may be a part): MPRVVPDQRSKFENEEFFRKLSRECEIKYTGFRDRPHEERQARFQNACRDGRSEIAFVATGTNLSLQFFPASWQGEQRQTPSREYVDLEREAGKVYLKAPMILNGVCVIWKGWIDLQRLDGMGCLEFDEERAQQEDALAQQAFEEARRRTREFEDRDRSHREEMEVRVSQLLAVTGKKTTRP

[6] = biological target: T3, Runt-related transcription factor 1/Core-binding factor subunit beta; experiment: disruptors of Runt domain/CBFb-SMMHC interaction – biochemical, FRET, Cerulean-Runt, Venus-CBFb-SMMHC, uHTS, […] (AID 1434); assay type: protein assay
Aminopeptidase N = biological target: T4, Aminopeptidase N (Plasmodium falciparum FcB1/Columbia, UniProt O96935); experiment: malaria alanyl aminopeptidase activity blockers – biochemical, fluorogenic H-Leu-NHMec substrate, 1536-well (AID 1445); design: species or system Plasmodium falciparum 3D7, 3D7
T4 sequence (O96935 whole entry): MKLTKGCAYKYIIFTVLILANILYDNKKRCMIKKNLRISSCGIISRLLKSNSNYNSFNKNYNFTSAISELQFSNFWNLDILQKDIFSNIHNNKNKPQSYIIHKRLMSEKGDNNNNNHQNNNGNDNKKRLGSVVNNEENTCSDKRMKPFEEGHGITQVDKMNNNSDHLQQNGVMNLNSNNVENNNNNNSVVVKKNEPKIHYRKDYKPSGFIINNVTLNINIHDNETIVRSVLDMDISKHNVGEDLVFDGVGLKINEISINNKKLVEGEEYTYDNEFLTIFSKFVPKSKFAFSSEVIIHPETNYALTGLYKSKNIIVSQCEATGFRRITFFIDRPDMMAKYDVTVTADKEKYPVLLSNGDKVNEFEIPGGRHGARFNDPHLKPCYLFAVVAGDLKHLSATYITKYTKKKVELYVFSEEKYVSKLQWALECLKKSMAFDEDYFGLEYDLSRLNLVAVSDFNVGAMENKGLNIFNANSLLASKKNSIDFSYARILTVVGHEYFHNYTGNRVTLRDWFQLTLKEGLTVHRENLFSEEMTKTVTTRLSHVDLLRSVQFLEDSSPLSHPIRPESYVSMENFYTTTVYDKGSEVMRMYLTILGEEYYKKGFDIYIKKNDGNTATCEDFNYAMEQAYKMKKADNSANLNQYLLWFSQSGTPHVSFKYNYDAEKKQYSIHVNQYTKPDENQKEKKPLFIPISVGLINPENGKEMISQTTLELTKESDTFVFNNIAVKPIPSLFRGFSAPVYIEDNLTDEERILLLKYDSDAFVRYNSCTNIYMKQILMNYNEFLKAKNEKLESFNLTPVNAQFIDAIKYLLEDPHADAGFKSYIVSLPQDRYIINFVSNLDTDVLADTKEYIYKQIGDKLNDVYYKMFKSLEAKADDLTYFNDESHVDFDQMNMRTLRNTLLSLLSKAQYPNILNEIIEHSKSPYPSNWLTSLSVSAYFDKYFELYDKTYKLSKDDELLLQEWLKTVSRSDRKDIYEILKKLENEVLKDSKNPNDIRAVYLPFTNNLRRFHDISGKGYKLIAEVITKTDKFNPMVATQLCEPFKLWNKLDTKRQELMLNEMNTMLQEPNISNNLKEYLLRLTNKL

[7] = biological target: Signal transducer and activator of transcription 1-alpha/beta (Homo sapiens, UniProt P42224); experiment: STAT3 blockade with qPCR and toxicity readouts – cell-based, STAT1 panel, cytotoxicity, late-stage follow-up, panel member STAT1 Inhibition (AID 2078)
Chain of Signal transducer and activator of transcription 1-alpha/beta (P42224 whole entry): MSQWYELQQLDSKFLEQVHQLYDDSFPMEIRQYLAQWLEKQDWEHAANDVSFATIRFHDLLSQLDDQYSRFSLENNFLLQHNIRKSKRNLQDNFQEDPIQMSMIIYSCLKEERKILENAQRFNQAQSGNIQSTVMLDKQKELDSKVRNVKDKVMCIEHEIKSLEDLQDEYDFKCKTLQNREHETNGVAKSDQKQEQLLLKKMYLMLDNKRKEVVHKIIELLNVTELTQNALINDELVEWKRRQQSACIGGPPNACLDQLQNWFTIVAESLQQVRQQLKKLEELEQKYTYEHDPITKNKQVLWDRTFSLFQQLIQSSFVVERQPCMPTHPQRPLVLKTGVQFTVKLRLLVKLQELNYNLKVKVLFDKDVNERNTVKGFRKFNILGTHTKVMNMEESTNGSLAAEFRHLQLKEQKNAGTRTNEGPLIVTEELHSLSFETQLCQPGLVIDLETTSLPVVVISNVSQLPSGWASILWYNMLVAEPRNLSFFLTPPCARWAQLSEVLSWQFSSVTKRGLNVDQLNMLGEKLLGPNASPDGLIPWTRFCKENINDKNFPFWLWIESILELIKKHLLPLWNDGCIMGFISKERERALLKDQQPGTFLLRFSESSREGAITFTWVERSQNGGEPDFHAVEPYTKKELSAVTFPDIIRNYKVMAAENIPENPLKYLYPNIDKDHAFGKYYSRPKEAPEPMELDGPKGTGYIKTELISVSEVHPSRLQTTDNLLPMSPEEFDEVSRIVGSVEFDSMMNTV

[8] = biological target: Signal transducer and activator of transcription 3 (Homo sapiens, UniProt P40763); experiment: STAT3 blockade with qPCR and toxicity readouts – cell-based, STAT1 panel, cytotoxicity, late-stage follow-up, panel member STAT3 Inhibition (AID 2078)
Chain of Signal transducer and activator of transcription 3 (P40763 whole entry): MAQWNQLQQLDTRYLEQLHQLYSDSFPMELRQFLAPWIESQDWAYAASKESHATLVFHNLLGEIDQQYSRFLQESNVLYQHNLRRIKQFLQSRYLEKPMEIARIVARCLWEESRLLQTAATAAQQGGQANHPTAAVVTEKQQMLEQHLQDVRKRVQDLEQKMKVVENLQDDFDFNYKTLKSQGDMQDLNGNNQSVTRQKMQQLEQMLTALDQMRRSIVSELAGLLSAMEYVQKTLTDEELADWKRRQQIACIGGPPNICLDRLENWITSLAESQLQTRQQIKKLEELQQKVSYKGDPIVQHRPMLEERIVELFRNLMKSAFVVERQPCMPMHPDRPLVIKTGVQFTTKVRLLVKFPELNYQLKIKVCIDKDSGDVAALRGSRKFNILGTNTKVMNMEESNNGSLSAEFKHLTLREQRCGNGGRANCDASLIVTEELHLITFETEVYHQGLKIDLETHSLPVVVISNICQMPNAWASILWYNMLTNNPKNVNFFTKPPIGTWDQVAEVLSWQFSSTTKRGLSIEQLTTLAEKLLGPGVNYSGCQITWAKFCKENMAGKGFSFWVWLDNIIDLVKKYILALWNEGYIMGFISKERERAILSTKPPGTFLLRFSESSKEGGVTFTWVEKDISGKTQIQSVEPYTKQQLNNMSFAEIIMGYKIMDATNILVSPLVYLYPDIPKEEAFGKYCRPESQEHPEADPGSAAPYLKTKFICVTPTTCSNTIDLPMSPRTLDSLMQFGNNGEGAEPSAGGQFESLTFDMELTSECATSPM

[9] = Luminescence Cell-Based Dose Retest to Confirm Inhibitors of Cancer Stem Cells. [Related pubchem assays (depositor defined):AID2717, AID2721]; assay type: functional; details: Homo sapiens
[10] = viability loss of HMLE_sh_eGFP cells – cell-based, luminescence, counter-screen for HMLE_sh_ECad selective toxicity project, dose response (AID 463074); assay type: functional, Homo sapiens;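 note: HMLE human mammary epithelial cells expressing control shRNA against eGFP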
Cytochrome P450 2D6 = Cytochrome P450 2D6 (Homo sapiens, UniProt P10635);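 note: CYP2D6 member of a cytochrome P450 panel assay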
Chain of Cytochrome P450 2D6 (P10635 whole entry): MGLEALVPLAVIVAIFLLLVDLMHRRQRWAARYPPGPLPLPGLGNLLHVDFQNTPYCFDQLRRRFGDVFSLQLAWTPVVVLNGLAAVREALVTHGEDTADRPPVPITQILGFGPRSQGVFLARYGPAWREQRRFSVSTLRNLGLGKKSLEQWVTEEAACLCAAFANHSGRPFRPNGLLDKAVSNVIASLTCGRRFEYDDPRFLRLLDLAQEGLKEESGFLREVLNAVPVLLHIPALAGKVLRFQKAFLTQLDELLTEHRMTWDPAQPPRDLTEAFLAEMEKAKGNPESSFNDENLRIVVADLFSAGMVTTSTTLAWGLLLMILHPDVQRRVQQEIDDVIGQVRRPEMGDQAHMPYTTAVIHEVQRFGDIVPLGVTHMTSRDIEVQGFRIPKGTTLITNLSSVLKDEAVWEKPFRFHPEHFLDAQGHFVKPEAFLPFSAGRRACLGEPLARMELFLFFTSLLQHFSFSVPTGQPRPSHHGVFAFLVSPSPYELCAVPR

Cytochrome P450 1A2 = biological target: T5, Cytochrome P450 1A2 (Homo sapiens, UniProt P05177);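 note: PubChem cytochrome P450 panel assay, CYP1A2 panel member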
T5 sequence (P05177 whole entry): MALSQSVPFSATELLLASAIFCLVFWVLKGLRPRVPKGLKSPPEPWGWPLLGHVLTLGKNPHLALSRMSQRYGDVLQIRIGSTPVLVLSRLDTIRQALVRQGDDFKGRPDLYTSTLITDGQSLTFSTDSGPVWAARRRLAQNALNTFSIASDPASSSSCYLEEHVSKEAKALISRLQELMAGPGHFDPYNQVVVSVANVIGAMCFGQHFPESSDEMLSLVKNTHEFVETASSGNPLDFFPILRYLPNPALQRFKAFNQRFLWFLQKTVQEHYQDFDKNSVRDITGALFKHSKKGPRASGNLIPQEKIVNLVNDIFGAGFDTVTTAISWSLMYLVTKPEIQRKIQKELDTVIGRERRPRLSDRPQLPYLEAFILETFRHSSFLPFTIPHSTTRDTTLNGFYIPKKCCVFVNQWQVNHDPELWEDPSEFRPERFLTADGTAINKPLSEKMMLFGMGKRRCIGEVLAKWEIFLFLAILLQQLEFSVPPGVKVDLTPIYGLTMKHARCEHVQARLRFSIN

- IC50 [1]: 66.5 µM (active)
SMILES: NS(=O)(=O)c1ccc(NC(=S)NC2CCCc3ccccc32)cc1 (centres undefined)

- EC50 [2]: > 20 µM (inactive)
- EC50 [3]: > 64 µM (inactive)
- EC50 [4]: > 32 µM (inactive)
- EC50 (Mu-type opioid receptor): > 32 µM (inactive)
SMILES: CC(=O)Oc1ccc(CSc2nnc(-c3ccccn3)n2Cc2ccco2)cc1

- AC50 (Cytochrome P450 2D6): 6.31 µM (active)
- AC50 (Cytochrome P450 1A2): inactive
SMILES: Nc1nnc(-c2cccc(Cl)c2Cl)c(N)n1 [LAMOTRIGINE]

Second part, the molecule before the results:

SMILES: CC(C)OCCCn1c(-c2ccco2)nc2nc3ccccc3nc21
- IC50 [5]: > 100 µM (inactive)
- IC50 [6]: 7.07 µM (active)
- IC50 (Aminopeptidase N): 92.6 µM (active)

SMILES: c1ccc(CC2CCN(c3ncnc4scc(-c5cccs5)c34)CC2)cc1
- IC50 [7]: > 55.7 µM (inactive)
- IC50 [8]: 16.7 µM (inactive)

SMILES: C/C(=N\Nc1cccc(Cl)c1)C1(C)N(O)C(C)(C)C(c2ccco2)=[N+]1[O-] (centres undefined)
- AC50 [9]: 1.06 µM (active)
- AC50 [10]: 1.5 µM (inconclusive)
